Data taken from BindingDB's records for patent US20240317745 (Humanwell Pharmaceutical US, 2024).

molecular target: Sigma non-opioid intracellular receptor 1 (Cavia porcellus, UniProt Q60492); assay: Binding Affinity Assay
Protocol: An appropriate amount of homogenization buffer was added to the prepared membrane, and was dispersed into a suspension using a homogenizer, protein concentration was measured to be 4 mg/ml. 100 micrograms of protein were added to each well of a 96-well plate, with a volume of 90 μl. […] [3H]-(+)-pentazocine (Perkin-Elmer, Cat #NET1056250UC) was added to each well (final concentration of 10 nM). The 96-well plate was incubated in a constant temperature water bath (25° C., 180 minutes). […] After washing, the samples were dried in a 37° C. oven.

Chain of Sigma non-opioid intracellular receptor 1 (Q60492 whole entry): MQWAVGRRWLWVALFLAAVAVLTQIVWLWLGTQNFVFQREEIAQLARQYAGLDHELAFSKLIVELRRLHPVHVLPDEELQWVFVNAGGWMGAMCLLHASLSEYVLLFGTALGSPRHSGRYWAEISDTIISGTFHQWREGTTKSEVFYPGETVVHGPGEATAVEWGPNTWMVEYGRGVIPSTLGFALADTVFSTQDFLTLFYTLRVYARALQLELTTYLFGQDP

Row | SMILES | Ki [nM]
1 | Fc1ccc(-c2cc(COCCN3CCOCC3)on2)cc1F [US20240317745, Compound 1] | 80.3
2 | Clc1ccc(-c2noc(COCCN3CCOCC3)c2Br)cc1Cl [US20240317745, Compound 74] | 84.4
3 | OC1CCN(CCOCc2cc(-c3ccc(Cl)c(Cl)c3)no2)CC1 [US20240317745, Compound 65] | 39.6
4 | OC1CCN(Cc2cc(-c3ccc(F)c(F)c3)no2)CC1 [US20240317745, Compound 37] | 308
